Laboratory results published in US7148193B2, “Compounds that bind to growth hormone receptor” (Antyra, Inc., priority 1997, dated 2006).
Positions count from the first letter of the chain named. Where a SMILES comes first, the peptide text is derived from it. Bridges are numbered along the chain shown (N, C = ends).

What was measured:
rGHBP = target: T1, rGHBP (Rattus norvegicus, UniProt P16310); test: Species specificity of binding by ELISA and BIAcore, rGHBP; details: in words
T1 construct: 1–48 of GHBP; The 3′ oligo used for this reaction encoded the mutation L43R (CTG→AGA); The second PCR reaction amplified the DNA encoding amino acids 38–260; 6xHis; made in house
T1 sequence (P16310 19-278 isoform P16310-2): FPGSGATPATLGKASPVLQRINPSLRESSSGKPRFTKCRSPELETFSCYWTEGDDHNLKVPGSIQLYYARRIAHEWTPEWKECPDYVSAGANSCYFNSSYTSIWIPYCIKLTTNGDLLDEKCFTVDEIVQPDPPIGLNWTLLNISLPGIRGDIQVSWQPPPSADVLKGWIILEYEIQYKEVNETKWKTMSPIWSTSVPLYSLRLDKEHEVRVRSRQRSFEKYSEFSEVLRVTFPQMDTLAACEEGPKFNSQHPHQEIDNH
Description: (§1) Wells were coated with either recombinant rGHBP or ‘hu’ GHBP (100 ng/well). Additions of H5 (SEQ ID NO:8) and H10 (SEQ ID NOS:9, 80, and 81) phage (10^10/well) and detection were made as described. […] Streptavidin chips were coated with H5 (SEQ ID NO:8) to 1100 RU as described and rGHBP or ‘hu’ GHBP (500 μg/ml) injected as 30 μl samples.
(§2) Growth hormone receptors from different species bind human GH as well as their own GH, however human GHR only binds human or monkey GH. […] The sequence of rGHBP was altered by PCR to create a “humanized” version (‘hu’ GHBP; FIG. 9A). Partially purified ‘hu’GHBP (FIG. 9B) was tested for binding using ELISA and BIAcore analysis. […] This was confirmed by BIAcore analysis (FIG. 10B).
(§3) The biotinylated control peptide (SEQ ID NO:10) was immobilized onto one flow cell of a SA-5 (streptavidin coated) sensor chip to a final density of 700 RU. On a second flow cell, either hGH (1100 RU final density), H5WT peptide (SEQ ID NO:8; 1100 RU final density), or bGH (730 RU final density) was immobilized. GHBP (either rat or humanized) was injected at a concentration of 500 μg/ml with a flow rate of 5 μl/min. Background binding to the control surface was subtracted prior to further analysis.

‘hu’ GHBP = target: T2, ‘hu’ GHBP (Rattus norvegicus, UniProt P16310, L61R); test: Species specificity of binding by ELISA and BIAcore, 'hu' GHBP; details: in words
T2 construct: 1–48 of GHBP; The 3′ oligo used for this reaction encoded the mutation L43R (CTG→AGA); The second PCR reaction amplified the DNA encoding amino acids 38–260; 6xHis; made in house
T2 sequence (P16310 19-278 isoform P16310-2 L61R): T1 sequence (P16310 19-278 isoform P16310-2) with L43R
Description: as §1, §2, §3

[1] = target: T3, rat growth hormone receptor (Rattus norvegicus, UniProt P16310); test: Cell proliferation assay (WST-1) in FDC-1 cells stably transfected with rat growth hormone receptor; assay type: cell-based; details: 18 h
T3 construct: expressed in transfected cells; host or cells: FDC-1 cells
T3 sequence (P16310 19-638): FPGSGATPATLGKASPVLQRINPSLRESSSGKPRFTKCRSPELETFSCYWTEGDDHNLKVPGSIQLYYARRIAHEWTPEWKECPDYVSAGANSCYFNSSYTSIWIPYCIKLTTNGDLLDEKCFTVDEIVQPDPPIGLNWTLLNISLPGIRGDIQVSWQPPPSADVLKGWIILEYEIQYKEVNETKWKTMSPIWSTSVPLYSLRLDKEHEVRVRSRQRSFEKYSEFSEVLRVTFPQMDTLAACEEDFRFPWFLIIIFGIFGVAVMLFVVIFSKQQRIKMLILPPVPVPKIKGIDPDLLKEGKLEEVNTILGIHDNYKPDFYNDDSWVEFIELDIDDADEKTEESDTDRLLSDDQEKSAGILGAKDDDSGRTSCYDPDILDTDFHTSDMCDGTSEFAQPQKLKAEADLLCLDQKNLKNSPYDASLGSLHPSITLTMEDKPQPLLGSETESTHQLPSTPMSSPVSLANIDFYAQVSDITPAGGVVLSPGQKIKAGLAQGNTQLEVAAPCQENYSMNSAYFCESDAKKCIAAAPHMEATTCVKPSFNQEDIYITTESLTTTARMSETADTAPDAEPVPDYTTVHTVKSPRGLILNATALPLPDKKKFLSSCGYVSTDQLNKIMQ
Description: Cells transfected with rat GHR (50,000 cells per well) were incubated with either bovine GH, H5 peptide (SEQ ID NO:8), 447 peptide (SEQ ID NO:11) or control peptide (SEQ ID NO:10) for 18 h at 37° C. Experiments were done in triplicate. Background signal A450=0.15. […] Cells transfected with rat GHR (50,000 cells per well) containing […] bovine GH were incubated with either control peptide (SEQ ID NO:10), H5 peptide (SEQ ID NO:8) or 447 peptide (SEQ ID NO:11) for 18 h at 37° C. Proliferation was measured using WST-1 reagent. The “*” symbol corresponds to the A450 measurement for the cells incubated without GH.
Agonistic and antagonistic activities of the two peptides, H5WT (SEQ ID NO:8) and bP#447 ([…]), were tested in FDC-1 cells stably transfected with the gene encoding the rat growth hormone receptor. The resulting cell line required either IL-3 or GH for growth. The cells were grown in RPMI 1640 medium containing 10% FCS (fetal calf serum) and 20 units of IL-3 per ml. […] activity assays were performed in a total volume of 100 μl in 96 well plates (flat bottom). Cells were seeded at 50,000 cells/well in 50 μl RPMI 1640 (without IL-3) medium containing horse serum instead of FCS to reduce background. To duplicate wells, 50 μl of either growth hormone or peptides at different concentrations was added, followed by incubation for 18 h in a CO2 incubator. Assays to measure the antagonistic activity were performed in a total volume of 100 μl in 96 well plates. Either H5WT peptide (SEQ ID NO:8), bP#447 peptide (SEQ ID NO:11), or control peptide (SEQ ID NO:10) was added to cells containing 0.003 μM of bovine GH and incubated at 37° C. for 18 h in a CO2 incubator. Proliferation assays were performed using WST-1 reagent. The WST-1 tetrazolium salt (light red color) is cleaved to formazan (dark red color) by the succinate-tetrazolium reductase system, which is active only in viable cells. […] Ten microliters of WST-1 reagent was added and the plates incubated for 1–4 h 37° C. Proliferation was measured by absorbance at 450 nm.

binding to rGHBP (rGHBP): bound to rGHBP
binding to ‘hu’ GHBP (‘hu’ GHBP): not ‘hu’GHBP
antagonistic activity ([1]; cells with 0.003 μM bovine GH, at the concentrations tested): no antagonistic activity
agonistic activity ([1]; no GH added, WST-1 A450): partial agonistic activity
SMILES: CC(C)C[C@@H]1NC(=O)[C@H](CO)NC(=O)[C@H](CCC(N)=O)NC(=O)[C@@H](NC(=O)[C@H](CC(C)C)NC(=O)[C@H](CC(=O)O)NC(=O)[C@H](CCCCN)NC(=O)[C@H](Cc2ccc(O)cc2)NC(=O)[C@@H](N)CC(=O)O)CSSC[C@@H](C(=O)N[C@@H](C)C(=O)N[C@@H](CCCCN)C(=O)N[C@@H](CCCCN)C(=O)O)NC(=O)[C@H](Cc2c[nH]c3ccccc23)NC(=O)CNC(=O)[C@H](C)NC(=O)[C@H](CC(C)C)NC(=O)[C@H](Cc2c[nH]c3ccccc23)NC(=O)CNC(=O)[C@@H]2CCCN2C(=O)[C@H](Cc2ccc(O)cc2)NC(=O)[C@H]([C@@H](C)O)NC(=O)[C@H](C(C)C)NC(=O)CNC1=O [H5] (H-DYKDLCQSLGVTYPGWLAGWCAKK-OH; disulfide 6-21; N-terminus and C-terminus assumed)
